This note sets out measurements from patent publication US7745462B2, “Quinoline-2-one derivatives for the treatment of airways diseases” (Novartis AG, priority 2003, dated 2010).

Assay [1] addresses β1-adrenoreceptor (Homo sapiens, UniProt P08588). The assay can be described thus: β1-adrenoreceptor binding potency, classical filtration binding assay.
Text: (§1) The β2 agonist activity, onset of action and duration of action of the agents of the invention may be tested using the guinea pig tracheal strip in vitro assay according to the procedure of R. A. Coleman and A. T. Nials, J. Pharmacol. Methods 1989, 21, 71.
Assay [2] addresses β2-adrenoreceptor (Homo sapiens, UniProt P07550). The assay can be described thus: β2-adrenoreceptor binding potency, classical filtration binding assay.
Text: as §1
Where [3] appears, read: read-out: Ki (β1) binding potency, classical filtration binding assay, second value of β2/β1 pair.
The mark [4] stands for this setting: read-out: Ki (β2) binding potency, classical filtration binding assay, first value of β2/β1 pair.

Where two headings read alike, the source gives them in different places.

β1-adrenoreceptor, sequence (P08588 whole entry, species assumed): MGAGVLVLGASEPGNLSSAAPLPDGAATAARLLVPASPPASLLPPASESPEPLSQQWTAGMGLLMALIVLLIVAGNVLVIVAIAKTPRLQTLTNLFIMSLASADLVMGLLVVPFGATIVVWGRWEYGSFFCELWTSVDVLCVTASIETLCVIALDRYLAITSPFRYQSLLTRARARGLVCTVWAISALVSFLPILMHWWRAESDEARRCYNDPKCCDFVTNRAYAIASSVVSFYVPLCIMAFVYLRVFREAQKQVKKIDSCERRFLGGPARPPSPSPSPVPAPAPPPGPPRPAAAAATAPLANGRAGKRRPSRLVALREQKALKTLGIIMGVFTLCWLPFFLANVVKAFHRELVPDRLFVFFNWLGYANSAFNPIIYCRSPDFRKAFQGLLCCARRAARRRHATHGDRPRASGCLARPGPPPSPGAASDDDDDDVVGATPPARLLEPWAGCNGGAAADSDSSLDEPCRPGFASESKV

Regarding `CCC1=C(CC)CC2=C(C1)CC(NC[C@H](O)c1ccc(O)c3[nH]c(=O)ccc13)C2` [Example 30, 5-[R-2-(5,6-Diethyl-2,3,4,7-tetrahydro-1H-inden-2-ylamino)-1-hydroxyethyl]-8-hydroxy-1H-quinolin-2-one], the Ki in assay [1] was 132 nM; in assay [2], 77 nM.

Regarding `O=c1ccc2c([C@@H](O)CN[C@H]3Cc4ccc(-c5ccco5)cc4C3)ccc(O)c2[nH]1` [Example 139, 5-[R-2-(S-5-(Furan-2-yl)indan-2-ylamino)-1-hydroxyethyl]-8-hydroxy-1H-quinohnl-2-one], the Ki in assay [1] stood at 4 nM; in assay [2], 3 nM.

With `CCCCc1ccc2c(c1)CCC2NC[C@H](O)c1ccc(O)c2[nH]c(=O)ccc12` (mixture of isomers) [Example 3, 5-[R-2-(RS-5-butylindan-1-ylamino)-1-hydroxyethyl]-8-hydroxy-1H-quinolin-2-one], the Ki is 50 nM in assay [1] and 54 nM in assay [2].

Regarding “5-[R-2-(1R,2R-2-Benzylcyclopentylamino)-1-hydroxyethyl]-8-hydroxy-1H-quinolin-2-one [Example 35]”, the Ki in assay [1] (setting [3]) is 6 nM; in assay [2] (setting [4]) it was 0.4 nM.

With `O=c1ccc2c(C(O)CNC3CCCC3C3CCCCC3)ccc(O)c2[nH]1` (mixture of isomers) [Example 33, 5-[R-2-(1S,2S-2-Cyclohexylcyclopentylamino)-1-hydroxyethyl]-8-hydroxy-1H-quinolin-2-one and 5-[R-2-(1R,2R-2-cyclohexylcyclopentylamino)-1-hydroxyethyl]-8-hydroxy-1H-quinolin-2-one], the Ki in assay [1] is 491 nM; in assay [2], 48 nM.

Regarding “5-[R-2-((3aS,5R,6aR)-2-Butyloctahydrocyclopenta[c]pyrrol-5-ylamino)-1-hydroxyethyl]-8-hydroxy-1H-quinolin-2-one and 5-[R-2-((3aS,5S,6aR)-2-butyloctahydrocyclopenta[c]pyrrol-5-ylamino)-1-hydroxyethyl]-8-hydroxy-1H-quinolin-2-one [Example 85]”, the figures for the inhibitory constant (Ki) in assay [1] (setting [3]) and in assay [2] (setting [4]) were 380 nM and 121 nM, respectively.

`COCC1(NC[C@H](O)c2ccc(O)c3[nH]c(=O)ccc23)Cc2ccccc2C1` [Example 55, 8-Hydroxy-5-[R-1-hydroxy-2-(2-methoxymethylindan-2-ylamino)-ethyl]-1H-quinolin-2-one]: the figures for the Ki in assay [1] and in assay [2] were 384 nM and 128 nM, respectively.

For `CC1c2ccccc2CC1NCC(O)c1ccc(O)c2[nH]c(=O)ccc12` (mixture of isomers) [Example 4, 8-Hydroxy-5-[R-1-hydroxy-2-(1R,2S-1-methylindan-2-ylamino)ethyl]-1H-quinolin-2-one and 8-hydroxy-5-[R-1-hydroxy-2-(1S,2R-1-methylindan-2-ylamino)ethyl]-1H-quinolin-2-one], the values for the inhibitory constant (Ki) in assay [1] and in assay [2] were 115 nM and 6 nM, respectively.

Take `O=c1ccc2c([C@@H](O)CN[C@@H]3CCc4ccccc43)ccc(O)c2[nH]1` [Example 1, 8-Hydroxy-5-[R-1-hydroxy-2-(R-indan-1-ylamino)ethyl]-1H-quinolin-2-one]: the results for the Ki in assay [1] and in assay [2] were 186 nM and 26 nM, respectively.
